The text below walks through data of patent publication US20210128667A1, “IMMUNOPROTEASOME INHIBITORS AND IMMUNOSUPPRESSIVE AGENT IN THE TREATMENT OF AUTOIMMUNE DISORDERS” (KEZAR LIFE SCIENCES, priority 2017, published 2021).

One data set has as its system immune cell types. Kind of data set: In vitro immune cell function (cytokine production, T-cell subsets, plasma cells, autoantibodies). It counts as cell-based.
Data set [1] has as its target T1, immunoproteasome (Homo sapiens, UniProt P28062+P28065+P40306).
T1 construct: endogenous in cells
The data set can be described thus: Immunoproteasome inhibition in human cells in vitro. Type of data set: cell-based.

Data set [2] has as its target LMP7 subunit of the immunoproteasome (Homo sapiens, UniProt P28062). The data set can be described thus: In vitro inhibition of immunoproteasome subunits. It counts as biochemical.
Data set [3] has as its target T2, immunoproteasome (Rattus norvegicus, UniProt P28064+P28077+Q4KM35).
T2 construct: from tissue; host or cells: blood and tissues of dosed rats
Kind of data set: Immunoproteasome inhibition in blood and tissues after administration to rats. It counts as in vivo. Particulars: administered to rats.

The test system of data set [4] is NZB/WF1 mice with established nephritis. The data set can be described thus: NZB/W F1 mouse model of established nephritis: proteinuria (urine dipsticks) and survival. Type of data set: in vivo. The settings on record: 2.5 mg/kg KZR-616 SC QW, 30 mg/kg QDx7 PO MMF, in comparison with the untreated mice. The protocol: NZB/W Fl mice were purchased from Jackson Laboratories. All mice were housed in the animal facility at Kezar Life Sciences. All experiment protocols were reviewed and approved by the Kezar Committee on Animal Resources. NZB/WF1 mice with established nephritis (24 weeks of age with duratble proteinuria ≥1+ proteinuria) were treated with vehicle alone, 2.5 mg/kg KZR-616 SC QW, 30 mg/kg QDx7 PO MMF or the combination of 2.5 mg/kg KZR-616 SC QW KZR-616 and 30 mg/kg QDx7 PO MMF. Proteinuria was monitored weekly once with urine dipsticks (Uristix by Bayer) and survival was observed.
To investigate immunoproteasome inhibition combined with the standard of care treatment MMF, NZB/w mice were administered vehicle alone, 2.5 mg/kg KZR-616 SC QW, 30 mg/kg QDx7 PO MMF or the combination of KZR-616 and MMF.

In the next data set the test system is non-proteasomal targets. Kind of data set: Broad diversity panel of biochemical assays (110 receptor/ligand and enzyme assays).
Data set [5] concerns immunoproteasome. Kind of data set: Immunoproteasome inhibition in blood and tissues after administration to monkeys. Type of data set: in vivo. Particulars: administered to monkeys.
Data set [6] concerns mouse models of multiple sclerosis and SLE. The settings on record: in vivo; cited from earlier work.
Data set [7] concerns the target immunoproteasome (Mus musculus, UniProt O35955+P28063+P28076). Particulars: upon administration to mice; cited from earlier work.
In another data set the test system is mouse models of RA. Particulars: doses one tenth of the maximum tolerated dose (MTD); cited from earlier work.
Data set [8] deals with immune effector cells. The settings on record: cited from earlier work.
Data set [9] has as its system immune effector cells. The settings on record: cited from earlier work. This is another data set of the same source.
The subject of data set [10] is patients with refractory SLE and LN. The settings on record: patients who had failed standard immunosuppressive therapies; cited from earlier work.
For data set [11], the system named is animal models of autoimmune disorders. The settings on record: animal models including RA and SLE; cited from earlier work.
The conditions of data set [12]: in vivo; cited from earlier work.

Regarding `COc1ccc([C@@H](O)[C@H](NC(=O)[C@H](C)NC(=O)CN2CCOCC2)C(=O)N[C@@H](CC2=CCCC2)C(=O)[C@@]2(C)CO2)cc1` [KZR-616], in the data set with immune cell types, the “activity of inflammatory T-helper cell subsets” value is recorded as “reduces the activity of inflammatory T-helper cell subsets”; the “number of regulatory T-cells” value was “increases the number of regulatory T-cells”; the “plasma cell formation and autoantibody production” value was “blocks plasma cell formation and autoantibody production”. The cytokine production result with immune cell types (multiple immune cell types) is on record as “blocks cytokine production across multiple immune cell types”. Further, the “inhibition of the immunoproteasome” value at immunoproteasome [1] is “potent and selective inhibition of the immunoproteasome”. In addition, in [2], the “mechanism of inhibition of immunoproteasome subunits” value is on record as “irreversible mechanism”. The “inhibition of the LMP7 subunit” value in data set [2] (in vitro, selectivity relative to(35)) was “potent and selective inhibition”. The “inhibition of the immunoproteasome in blood and tissues” value at immunoproteasome [3] was “potent and selective inhibition in blood and tissues”. Further, in data set [4], the level of proteinuria entry is reported as “significantly reduced the level of proteinuria” and the survival result is on record as “increased survival”. Moreover, the “inhibition of non-proteasomal targets” value with non-proteasomal targets is on record as “did not inhibit any non-proteasomal targets”. In the data set with immunoproteasome [5], the “inhibition of the immunoproteasome in blood and tissues” value was “potent and selective inhibition in blood and tissues”.
As for `COc1c(C)c2c(c(O)c1C/C=C(\C)CCC(=O)OCCN1CCOCC1)C(=O)OC2` [MMF, mycophenolate mofetil], in [4], the level of proteinuria result is recorded as “significantly reduced the level of proteinuria” and the survival entry was “increased survival”.
With `COc1ccc(C[C@H](NC(=O)[C@H](C)NC(=O)CN2CCOCC2)C(=O)N[C@@H](Cc2ccccc2)C(=O)[C@]2(C)CO2)cc1` [ONX 0914], in [6], the “activity and tolerability compared with bortezomib” value is recorded as “equivalent activity but better tolerability than bortezomib”; the therapeutic activity result is given as “therapeutically active”. For the same compound, the “inhibition of the immunoproteasome” value on immunoproteasome [7] is on record as “selectively inhibits the immunoproteasome”. Besides, the “joint inflammation, cytokine production and joint damage” value in the data set on mouse models of RA was “prevent joint-specific inflammation, reduce cytokine production, and ameliorate joint damage”. In addition, in the data set on immune effector cells [8], the autoantibody formation result is given as “blocked autoantibody formation”; the “number and activity of inflammatory T-cell subsets such as Th1 and Th17” value was “reduced the number and activity of inflammatory T-cell subsets”; the “number of regulatory T-cells (Treg)” value is “increased the number of regulatory T-cells”. The cytokine production result with immune effector cells [8] (immune effector cells) is recorded as “inhibited cytokine production in immune effector cells”.
With `CC(C)C[C@H](NC(=O)[C@H](Cc1ccccc1)NC(=O)c1cnccn1)B(O)O` [bortezomib], in the data set with immune effector cells [9], the cytokine release entry is on record as “blocks cytokine release from immune effector cells”. For the same compound, the clinical activity entry in data set [10] is listed as “shown to have clinical activity”. The anti-inflammatory activity entry in [11] is on record as “demonstrated anti-inflammatory activity”. For the same compound, the peripheral neuropathy entry in data set [12] is given as “dose limiting side effect of peripheral neuropathy”.
`CC(C)C[C@H](NC(=O)[C@H](CCc1ccccc1)NC(=O)CN1CCOCC1)C(=O)N[C@@H](Cc1ccccc1)C(=O)N[C@@H](CC(C)C)C(=O)[C@@]1(C)CO1` [carfilzomib]: in data set [12], the peripheral neuropathy result is recorded as “Peripheral neuropathy is not induced”.
